Data published in patent US9375002B2, “5-aminopyrimidine derivatives and use thereof for combating undesired plant growth” (BAYER INTELLECTUAL PROPERTY GMBH, priority 2012, dated 2016).

Experiments:
Assay type in all cases: in vivo
Viola tricolor = test: Pre-emergence herbicidal effect; conditions: 1280 g/ha, visual assessment after 3 weeks
From the text: (§1) 1. Pre-Emergence Herbicidal Effect and Crop Plant Compatibility Seeds of monocotyledonous and dicotyledonous weed plants and crop plants are placed in wood-fiber pots in sandy loam and covered with soil. The inventive compounds, formulated in the form of wettable powders (WP) or as emulsion concentrates (EC), are then applied to the surface of the covering soil as an aqueous suspension or emulsion at a water application rate of 600 to 800 I/ha (converted) with addition of 0.2% wetting agent. After the treatment, the pots are placed in a greenhouse and kept under good growth conditions for the test plants. The damage to the test plants is assessed visually after a test period of 3 weeks by comparison with untreated controls (herbicidal activity in percent (%): 100% action=the plants have died, 0% action=like control plants). VIOTR: Viola tricolor

Echinochloa crus-galli [1] = test: Pre-emergence herbicidal effect; conditions: 1280 g/ha, visual assessment after 3 weeks
From the text: as §1, with “AMARE: Amaranthus retroflexus ECHCG: Echinochloa crus-galli” for “VIOTR: Viola tricolor”

Amaranthus retroflexus = test: Pre-emergence herbicidal effect; conditions: 1280 g/ha, visual assessment after 3 weeks
From the text: as §1, with “AMARE: Amaranthus retroflexus ECHCG: Echinochloa crus-galli” for “VIOTR: Viola tricolor”

Abutilon theophrasti [2] = test: Pre-emergence herbicidal effect; conditions: 1280 g/ha, visual assessment after 3 weeks
From the text: as §1, with “ABUTH: Abutilon theophrasti ALOMY: Alopecurus myosuroides” for “VIOTR: Viola tricolor”

Alopecurus myosuroides = test: Pre-emergence herbicidal effect; conditions: 1280 g/ha, visual assessment after 3 weeks
From the text: as §1, with “ABUTH: Abutilon theophrasti ALOMY: Alopecurus myosuroides” for “VIOTR: Viola tricolor”

Lolium multiflorum = test: Pre-emergence herbicidal effect; conditions: 1280 g/ha, visual assessment after 3 weeks
From the text: as §1, with “LOLMU: Lolium multiflorum MATIN: Matricaria inodora” for “VIOTR: Viola tricolor”

Matricaria inodora = test: Pre-emergence herbicidal effect; conditions: 1280 g/ha, visual assessment after 3 weeks
From the text: as §1, with “LOLMU: Lolium multiflorum MATIN: Matricaria inodora” for “VIOTR: Viola tricolor”

Abutilon theophrasti [3] = test: Post-emergence herbicidal effect; conditions: 1280 g/ha, visual rating after about 3 weeks
Method: (§2) ABUTH: Abutilon theophrasti ALOMY: Alopecurus myosuroides 2. Post-Emergence Herbicidal Effect and Crop Plant Compatibility Seeds of monocotyledonous and dicotyledonous weed and crop plants are placed in sandy loam in wood-fiber pots, covered with soil and cultivated in a greenhouse under good growth conditions. 2 to 3 weeks after sowing, the test plants are treated at the one-leaf stage. The compounds according to the invention, formulated in the form of wettable powders (WP) or as emulsion concentrates (EC), are then sprayed as aqueous suspension or emulsion at a water application rate of 600 to 800 I/ha (converted) with the addition of 0.2% of wetting agent onto the green parts of the plants. After the test plants have been kept in the greenhouse under optimum growth conditions for about 3 weeks, the activity of the preparations is rated visually in comparison to untreated controls (herbicidal activity in percent (%): 100% activity=the plants have died, 0% activity=like control plants).

Polygonum convolvulus = test: Pre-emergence herbicidal effect; conditions: 1280 g/ha, visual assessment after 3 weeks
From the text: as §1, with “POLCO: Polygonum convolvulus SETVI: Setaria viridis” for “VIOTR: Viola tricolor”

Setaria viridis = test: Pre-emergence herbicidal effect; conditions: 1280 g/ha, visual assessment after 3 weeks
From the text: as §1, with “POLCO: Polygonum convolvulus SETVI: Setaria viridis” for “VIOTR: Viola tricolor”

Echinochloa crus-galli [4] = test: Post-emergence herbicidal effect; conditions: 1280 g/ha, visual rating after about 3 weeks
Method: as §2, with “AMARE: Amaranthus retroflexus ECHCG: Echinochloa crus-galli” for “ABUTH: Abutilon theophrasti ALOMY: Alopecurus myosuroides”

Row | Structure (SMILES) | herbicidal activity VIOTR (Viola tricolor) | herbicidal activity ECHCG (Echinochloa crus-galli [1]) | herbicidal activity AMARE (Amaranthus retroflexus) | herbicidal activity ABUTH (Abutilon theophrasti [2]) | herbicidal activity ALOMY (Alopecurus myosuroides) | herbicidal activity LOLMU (Lolium multiflorum) | herbicidal activity MATIN (Matricaria inodora) | herbicidal activity ABUTH (Abutilon theophrasti [3]) | herbicidal activity POLCO (Polygonum convolvulus) | herbicidal activity SETVI (Setaria viridis) | herbicidal activity ECHCG (Echinochloa crus-galli [4])
1 | CCc1ccc2c(c1)C(Nc1cnc(S(C)(=O)=O)nc1)CCO2 (racemic) [compound 65] | 100% | 100% | 100% | 100% | 90% | 90% | 100% | 90% | 100% | 100% | 100%
2 | CCc1ccc2c(c1)C(Nc1cnc(S(C)(=O)=O)nc1C(=O)O)CCO2 (racemic) [compound 68] | 100% | 100% | 100% | 100% | 100% | 90% | 100% | 90% | 100% | 100% | 90%
3 | Cc1ccc2c(c1)[C@H](Nc1cnc(S(C)(=O)=O)nc1)[C@@H](C)C2 [compound 134] | 100% | 100% | 100% | 100% | 100% | 100% | 100% | 90% | 100% | 100% | 90%
